Reference: US9586951B2 (FUJIFILM Corporation, priority 2013, dated 2017)

What was measured:
ATM = target: T1, ATM (Homo sapiens, UniProt Q13315); assay: ATM inhibition test (phosphorylation of Chk2 generated by ionizing radiation, AlphaScreen SureFire); format: cell-based; conditions: phosphorylated Chk2 in NCI-H460 cells, ionizing radiation 8Gy, 1 hour after test compound treatment; read-out: ATM inhibitory activity
T1 construct: detecting phosphorylation of Chk2 in a human non-small cell lung cancer cell line NCI-H460 (ATCC company); host or cells: NCI-H460 human non-small cell lung cancer cells
Procedure, shortened: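 Human NCI-H460 lung cancer cells were treated with compound for 1 h, then irradiated at 8Gy and incubated 1 h at 37° C. Phospho-Chk2 was quantified by AlphaScreen SureFire; inhibition % was normalised between irradiated untreated and non-irradiated untreated wells.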

[1] = tested on: human non-small cell lung cancer cell line NCI-H460; assay: Cell proliferation inhibition test by sensitivity-enhancing to ionizing radiation (Cell Titer Glo); format: cell-based; conditions: Homo sapiens, concentration in which SER became 2, NCI-H460 cells, ionizing radiation 2 Gy, cultured 120 hour
Procedure, shortened: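 Cells seeded at 2×10^3 cells/mL in RPMI-1640 with 10% FBS; after 24 h, compound added (0.1% DMSO), and 30 min later half the plates irradiated at 2 Gy. After 120 hour at 37° C, viability by Cell Titer Glo luminescence; SER2 is the concentration giving SER of 2 by sigmoidal fit.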

T1 sequence (Q13315 whole entry): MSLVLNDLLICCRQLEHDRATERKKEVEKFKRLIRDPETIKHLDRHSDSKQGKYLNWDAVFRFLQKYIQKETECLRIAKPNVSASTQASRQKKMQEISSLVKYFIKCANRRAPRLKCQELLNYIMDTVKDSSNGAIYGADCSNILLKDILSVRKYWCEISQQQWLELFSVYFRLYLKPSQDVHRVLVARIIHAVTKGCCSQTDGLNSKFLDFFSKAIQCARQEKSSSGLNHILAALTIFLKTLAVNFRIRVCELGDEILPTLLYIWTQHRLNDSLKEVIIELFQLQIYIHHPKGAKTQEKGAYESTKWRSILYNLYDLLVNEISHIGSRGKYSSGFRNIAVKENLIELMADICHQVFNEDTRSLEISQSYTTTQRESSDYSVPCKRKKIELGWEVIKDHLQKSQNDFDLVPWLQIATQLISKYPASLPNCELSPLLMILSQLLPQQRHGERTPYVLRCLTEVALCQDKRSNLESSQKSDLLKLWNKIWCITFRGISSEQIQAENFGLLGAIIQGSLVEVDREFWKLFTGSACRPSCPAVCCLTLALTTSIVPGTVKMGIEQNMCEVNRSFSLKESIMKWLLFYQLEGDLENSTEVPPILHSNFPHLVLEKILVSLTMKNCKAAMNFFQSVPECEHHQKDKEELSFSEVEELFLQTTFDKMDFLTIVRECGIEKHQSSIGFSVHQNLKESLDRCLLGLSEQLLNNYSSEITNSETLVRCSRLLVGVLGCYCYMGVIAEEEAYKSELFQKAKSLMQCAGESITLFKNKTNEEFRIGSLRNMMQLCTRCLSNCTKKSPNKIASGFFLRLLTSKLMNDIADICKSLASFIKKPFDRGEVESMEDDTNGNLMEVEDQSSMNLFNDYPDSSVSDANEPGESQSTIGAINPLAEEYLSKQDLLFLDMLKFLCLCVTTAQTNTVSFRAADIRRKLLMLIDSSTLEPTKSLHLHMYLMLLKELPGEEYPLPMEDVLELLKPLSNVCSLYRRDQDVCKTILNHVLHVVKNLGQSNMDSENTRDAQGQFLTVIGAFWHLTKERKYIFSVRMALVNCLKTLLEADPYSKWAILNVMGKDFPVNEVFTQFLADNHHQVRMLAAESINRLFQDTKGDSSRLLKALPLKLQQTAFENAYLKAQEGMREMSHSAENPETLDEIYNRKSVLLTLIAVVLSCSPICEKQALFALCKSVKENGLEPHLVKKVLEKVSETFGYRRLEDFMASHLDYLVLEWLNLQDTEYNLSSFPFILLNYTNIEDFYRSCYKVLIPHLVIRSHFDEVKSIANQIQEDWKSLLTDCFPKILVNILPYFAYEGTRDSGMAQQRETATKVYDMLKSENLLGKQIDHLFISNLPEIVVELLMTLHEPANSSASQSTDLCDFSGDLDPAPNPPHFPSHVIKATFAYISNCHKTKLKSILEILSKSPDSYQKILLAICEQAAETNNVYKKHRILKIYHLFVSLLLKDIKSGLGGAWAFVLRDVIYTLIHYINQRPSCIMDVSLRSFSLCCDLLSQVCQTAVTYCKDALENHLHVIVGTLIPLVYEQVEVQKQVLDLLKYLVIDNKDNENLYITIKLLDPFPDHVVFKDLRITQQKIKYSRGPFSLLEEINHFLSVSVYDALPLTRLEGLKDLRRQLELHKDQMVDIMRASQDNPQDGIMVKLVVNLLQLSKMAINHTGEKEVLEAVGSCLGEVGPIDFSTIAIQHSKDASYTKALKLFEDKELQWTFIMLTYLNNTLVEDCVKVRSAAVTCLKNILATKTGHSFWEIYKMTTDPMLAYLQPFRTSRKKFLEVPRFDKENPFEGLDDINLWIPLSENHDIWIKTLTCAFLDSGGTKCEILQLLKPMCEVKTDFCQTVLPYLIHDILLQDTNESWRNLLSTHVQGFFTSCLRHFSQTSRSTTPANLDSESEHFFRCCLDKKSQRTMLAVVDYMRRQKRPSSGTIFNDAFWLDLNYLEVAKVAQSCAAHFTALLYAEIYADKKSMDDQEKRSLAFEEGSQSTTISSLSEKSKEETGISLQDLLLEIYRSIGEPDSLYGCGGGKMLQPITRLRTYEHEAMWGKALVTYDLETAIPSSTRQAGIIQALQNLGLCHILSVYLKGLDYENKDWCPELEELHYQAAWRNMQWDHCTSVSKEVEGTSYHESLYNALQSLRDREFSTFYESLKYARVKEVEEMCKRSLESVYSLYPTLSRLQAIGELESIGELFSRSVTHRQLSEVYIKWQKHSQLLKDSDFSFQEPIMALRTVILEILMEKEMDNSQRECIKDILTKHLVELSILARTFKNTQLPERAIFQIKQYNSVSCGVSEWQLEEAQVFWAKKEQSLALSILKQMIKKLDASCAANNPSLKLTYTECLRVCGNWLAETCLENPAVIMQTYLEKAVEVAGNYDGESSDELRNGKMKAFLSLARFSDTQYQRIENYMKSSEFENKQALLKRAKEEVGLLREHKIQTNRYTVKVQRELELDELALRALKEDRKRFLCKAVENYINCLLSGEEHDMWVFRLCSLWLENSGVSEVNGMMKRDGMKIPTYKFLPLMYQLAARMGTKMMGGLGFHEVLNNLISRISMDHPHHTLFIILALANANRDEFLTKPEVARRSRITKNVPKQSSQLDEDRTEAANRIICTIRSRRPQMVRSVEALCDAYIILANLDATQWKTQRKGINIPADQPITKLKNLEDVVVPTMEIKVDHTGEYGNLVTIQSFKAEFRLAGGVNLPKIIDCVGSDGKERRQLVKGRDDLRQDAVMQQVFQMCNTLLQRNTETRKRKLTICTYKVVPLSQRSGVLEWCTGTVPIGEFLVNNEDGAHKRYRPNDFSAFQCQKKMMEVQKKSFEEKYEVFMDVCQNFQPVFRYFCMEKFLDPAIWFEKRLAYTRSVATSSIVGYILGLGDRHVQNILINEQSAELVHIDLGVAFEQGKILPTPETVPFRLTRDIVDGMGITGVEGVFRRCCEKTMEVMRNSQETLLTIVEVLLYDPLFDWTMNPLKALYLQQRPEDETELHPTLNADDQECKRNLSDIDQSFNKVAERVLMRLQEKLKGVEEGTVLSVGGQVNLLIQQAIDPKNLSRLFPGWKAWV

Row | Compound | IC50 (ATM) | SER2 (concentration at which the radiation sensitivity-enhancement ratio reaches 2) ([1]; NCI-H460, 120 h) | SER2 (concentration at which the radiation sensitivity-enhancement ratio reaches 2) [1]
1 | Cc1cnc(C(CCN2CCOCC2)Nc2ccc3c(c2)Sc2cccc(-c4cc(N5CCOCC5)cc(=O)[nH]4)c2S3)cn1 (stereo not shown) [Example 1-50-1, 6-(7-((1-(5-methylpyrazin-2-yl)-3-morpholinopropyl)amino)thianthren-1-yl)-4-morpholinopyridin-2(1H)-one] | < 100 nM | < 100 nM | 
2 | O=c1cc(N2CCOCC2)cc(-c2cccc3c2Sc2ccc(NC(CF)CN4CCOCC4)cc2S3)[nH]1 (single isomer, unassigned) [Example 1-41-1-2, 6-(7-((1-fluoro-3-morpholinopropan-2-yl)amino)thianthren-1-yl)-4-morpholinopyridin-2(1H)-one] | < 100 nM | < 100 nM | 
3 | CC1COCCN1CCNc1ccc2c(c1)Sc1cccc(-c3cc(N4CCOCC4)cc(=O)[nH]3)c1S2 (stereo not shown) [Example 1-16-7, 6-(7-((2-(3-Methylmorpholino)ethyl)amino)thianthren-1-yl)-4-morpholinopyridin-2(1H)-one] | < 100 nM |  | 100 to 500 nM
4 | CC(CN1CCOCC1)Nc1ccc2c(c1)Sc1cccc(-c3cc(N4CCOCC4)cc(=O)[nH]3)c1S2 (racemic) [Example 1-13-2-1, 4-Morpholino-6-(7-((1-morpholinopropan-2-yl)amino)thianthren-1-yl)pyridin-2(1H)-one] | < 100 nM | 100 to 500 nM | 
5 | O=c1cc(N2CCOCC2)cc(-c2cccc3c2Sc2ccc(NC4CCCC4N4CCOCC4)cc2S3)[nH]1 (racemic) [Example 1-16-1-1, 4-morpholino-6-(7-((2-morpholinocyclopentyl)amino)thianthren-1-yl)pyridin-2(1H)-one] | < 100 nM | < 100 nM | 
6 | COC[C@H](CN1CCO[C@H](C)C1)Nc1ccc2c(c1)Sc1cccc(-c3cc(N4CCOCC4)cc(=O)[nH]3)c1S2 [Example 1-46-7, 6-(7-(((S)-1-Methoxy-3-((R)-2-methylmorpholino)propan-2-yl)amino)thianthren-1-yl)-4-morpholino pyridin-2(1H)-one] | < 100 nM | 100 to 500 nM | 
7 | CC(Nc1ccc2c(c1)Sc1cccc(-c3cc(N4CCOCC4)cc(=O)[nH]3)c1S2)c1nccc(CF)n1 (stereo not shown) [Example 1-12-85, 6-(7-((1-(4-(Fluoromethyl)pyrimidin-2-yl)ethyl)amino)thianthren-1-yl)-4-morpholino pyridin-2(1H)-one] | < 100 nM | < 100 nM | 
8 | CC(CCN1CCOCC1)Nc1ccc2c(c1)Sc1cccc(-c3cc(N4CCOCC4)cc(=O)[nH]3)c1S2 (stereo not shown) [Example 1-42-1, 4-Morpholino-6-(7-((4-morpholinobutan-2-yl)amino)thianthren-1-yl)pyridin-2(1H)-one] | < 100 nM | 100 to 500 nM | 
9 | O=c1cc(N2CCOCC2)cc(-c2cccc3c2Sc2ccc(N[C@@H]4CCCC[C@@H]4N4CCOCC4)cc2S3)[nH]1 [Example 1-48-2, 4-Morpholino-6-(7-(((1R,2S)-2-morpholinocyclohexyl)amino)thianthren-1-yl)pyridin-2(1H)-one] | < 100 nM | < 100 nM | 
10 | Nc1ccc2c(c1)Sc1cccc(-c3cc(N4CCOCC4)cc(=O)[nH]3)c1S2 [Example 1-1, 6-(7-aminothianthren-1-yl)-4-morpholinopyridin-2(1H)-one] | < 100 nM | 500 to 2000 nM | 
11 | COc1cncc(C(C)Nc2ccc3c(c2)Sc2cccc(-c4cc(N5CCOCC5)cc(=O)[nH]4)c2S3)c1 (stereo not shown) [Example 1-12-9, 6-(7-((1-(5-Methoxypyridin-3-yl)ethyl)amino)thianthren-1-yl)-4-morpholino pyridin-2(1H)-one] | < 100 nM | 100 to 500 nM | 
12 | COCC(Nc1ccc2c(c1)Sc1cccc(-c3cc(N4CCOCC4)cc(=O)[nH]3)c1S2)c1ccc(C)cn1 (stereo not shown) [Example 1-12-100, 6-(7-((2-Methoxy-1-(5-methylpyridin-2-yl)ethyl)amino)thianthren-1-yl)-4-morpholino pyridin-2(1H)-one] | < 100 nM | < 100 nM | 
13 | N#Cc1ccnc(CNc2ccc3c(c2)Sc2cccc(-c4cc(N5CCOCC5)cc(=O)[nH]4)c2S3)c1 [Example 1-12-28, 2-(((6-(4-Morpholino-6-oxo-1,6-dihydro-pyridin-2-yl)thianthren-2-yl)amino)methyl) isonicotinonitrile] | < 100 nM | 100 to 500 nM | 
14 | CCN(C)CCC(Nc1ccc2c(c1)Sc1cccc(-c3cc(N4CCOCC4)cc(=O)[nH]3)c1S2)c1cccc(C)n1 (stereo not shown) [Example 1-23-1, 6-(7-((3-(ethyl(methyl)amino)-1-(6-methylpyridin-2-yl)propyl)amino)thianthren-1-yl)-4-morpholinopyridin-2(1H)-one] | < 100 nM | 100 to 500 nM | 

Continued, in another order:

Row | IC50 (ATM) | Compound | SER2 (concentration at which the radiation sensitivity-enhancement ratio reaches 2) ([1]; NCI-H460, 120 h) | SER2 (concentration at which the radiation sensitivity-enhancement ratio reaches 2) [1]
15 | < 100 nM | O=c1cc(N2CCOCC2)cc(-c2cccc3c2Oc2ccc(NCc4ccc(F)nc4)cc2C3)[nH]1 [Example 2-2-11, 6-(7-(((6-Fluoropyridin-3-yl)methyl)amino)-9H-xanthen-4-yl)-4-morpholino pyridin-2 (1H)-one] | 100 to 500 nM | 
16 | < 100 nM | Cc1cnc(C(C)Nc2ccc3c(c2)Cc2cccc(-c4cc(N5CCOCC5)cc(=O)[nH]4)c2O3)cn1 (stereo not shown) [Example 2-14-24, 6-(7-((1-(5-Methylpyrazin-2-yl)ethyl)amino)-9H-xanthen-4-yl)-4-morpholino pyridin-2(1H)-one] | 100 to 500 nM | 
17 | < 100 nM | O=c1cc(N2CCOCC2)cc(-c2cccc3c2Oc2ccc(NCc4ccnc(F)c4)cc2C3)[nH]1 [Example 2-21-2, 6-(7-(((2-Fluoropyridin-4-yl)methyl)amino)-9H-xanthen-4-yl)-4-morpholinopyridin-2 (1H)-one] | 100 to 500 nM | 
18 | 100 to 500 nM | CNc1ncc(CNc2ccc3c(c2)Cc2cccc(-c4cc(N5CCOCC5)cc(=O)[nH]4)c2O3)cn1 [Example 2-2-16, 6-(7-(((2-(Methylamino)pyrimidin-5-yl)methyl)amino)-9H-xanthen-4-yl)-4-morpholino pyridin-2(1H)-one] | 100 to 500 nM | 
19 | < 100 nM | CCN(C)c1cncc(CNc2ccc3c(c2)Cc2cccc(-c4cc(N5CCOCC5)cc(=O)[nH]4)c2O3)c1 [Example 2-21-9, 6-(7-(((5-(Ethyl(methyl)amino)pyridin-3-yl)methyl)amino)-9H-xanthen-4-yl)-4-morpholino pyridin-2(1H)-one] | 500 to 2000 nM | 
20 | < 100 nM | Cc1ccnc(CNc2ccc3c(c2)Sc2cccc(-c4cc(N5CCOCC5)cc(=O)[nH]4)c2O3)c1 [Example 4-8-19, 6-(8-(((4-Methylpyridin-2-yl)methyl)amino)phenoxathiin-4-yl)-4-morpholino pyridin-2(1H)-one] | 100 to 500 nM | 
21 | < 100 nM | O=c1cc(N2CCOCC2)cc(-c2cccc3c2Oc2ccc(NCc4cc(Cl)ccn4)cc2S3)[nH]1 [Example 4-4-2, 6-(8-(((4-Chloropyridin-2-yl)methyl)amino)phenoxathiin-4-yl)-4-morpholino pyridin-2(1H)-one] | 100 to 500 nM | 
22 | < 100 nM | CN(C)c1nccc(CNc2ccc3c(c2)Cc2cccc(-c4cc(N5CCOCC5)cc(=O)[nH]4)c2O3)n1 [Example 2-13-5, 6-(7-(((2-(Dimethylamino)pyrimidin-4-yl)methyl)amino)-9H-xanthen-4-yl)-4-morpholino pyridin-2(1H)-one] | 500 to 2000 nM | 
23 | < 100 nM | COc1ncc(CNc2ccc3c(c2)Cc2cccc(-c4cc(N5CCOCC5)cc(=O)[nH]4)c2O3)cn1 [Example 2-2-14, 6-(7-(((2-Methoxypyrimidin-5-yl)methyl)amino)-9H-xanthen-4-yl)-4-morpholino pyridin-2(1H)-one] | 100 to 500 nM | 
24 | < 100 nM | CC(Nc1ccc2c(c1)Cc1cccc(-c3cc(N4CCOCC4)cc(=O)[nH]3)c1O2)c1cc(Cl)ccn1 (single isomer, unassigned) [Example 2-14-89-2, 6-(7-((1-(4-chloropyridin-2-yl)ethyl)amino)-9H-xanthen-4-yl)-4-morpholinopyridin-2(1H)-one] | < 100 nM | 
25 | 100 to 500 nM | O=c1cc(N2CCOCC2)cc(-c2cccc3c2Oc2ccc(NCc4cncc(Cl)n4)cc2C3)[nH]1 [Example 2-13-1, 6-(7-(((6-chloropyrazin-2-yl)methyl)amino)-9H-xanthen-4-yl)-4-morpholinopyridin-2(1H)-one] | 500 to 2000 nM | 
26 | < 100 nM | O=c1cc(N2CCOCC2)cc(-c2cccc3c2Oc2ccc(NCc4ccc(Cl)s4)cc2C3)[nH]1 [Example 2-13-7, 6-(7-(((5-Chlorothiophen-2-yl)methyl)amino)-9H-xanthen-4-yl)-4-morpholino pyridin-2(1H)-one] | 500 to 2000 nM | 
